Experimental data reported in patent publication US9447081B2, “Substituted pyrimidines as pharmaceuticals and insecticides” (SHENYANG SINOCHEM AGROCHEMICALS R&D CO., LTD., priority 2012, dated 2016).

Assays:
rice blast = assay: microbe, parasite or virus in culture; assay type: cell-based; conditions: for inhibition at 25 µg/mL: Pyricularia oryzae, 24 h, read-out: inhibition rate against rice blast; for inhibition rate against rice blast: in vitro, 24 hours
cucumber downy mildew = assay: Protectant activity in vivo (whole plant), cucumber downy mildew; conditions: for pest or weed control at 25 µg/mL / pest or weed control at 50 µg/mL / pest or weed control at 100 µg/mL / pest or weed control at 400 µg/mL: Cucumis sativus, 168 h, read-out: protectant activity against cucumber downy mildew
Description: (§1) The method is as followed: The whole plant is used in this test. The compound is dissolved in a proper solvent to get mother solution. The proper solvent is selected from acetone, methanol, DMF and so on according to their dissolving capability to the sample. […] The testing solution is sprayed to the host plant by a special plant sprayer. The plant is inoculated with fungus after 24 hours. According to the infecting characteristic of fungus, the plant is stored in a humidity chamber and then transferred into greenhouse after infection is finished. And the other plants are placed in greenhouse directly. The activity of compound is obtained by eyeballing after 7 days in common.

corn rust = assay: Protectant activity in vivo (whole plant), corn rust; conditions: for pest or weed control at 25 µg/mL / pest or weed control at 100 µg/mL / pest or weed control at 400 µg/mL / pest or weed control at 6.25 µg/mL: Zea mays, 168 h, read-out: protectant activity against corn rust; for pest or weed control at 6.25 µg/mL: 6.25 mg/L
Description: as §1

wheat powdery mildew = assay: Protectant activity in vivo (whole plant), wheat powdery mildew
Description: as §1

armyworm = assay: Insecticidal activity against armyworm (airbrush spray); assay type: in vivo; conditions: second instar larvae, mortality after 72 h
Description: (§2) Compounds were dissolved in mixed solvent (acetone:methanol=1:1), and diluted to required concentration with water containing 0.1% of tween 80.
(§3) Diamond back moth, armyworm, Green Peach Aphid and carmine spider mite were used as targets and the method of spraying by airbrush was used for determination of insecticidal biassays.
(§4) The method of spraying by airbrush: The corn leaves were made into plates of 2 cm diameter by use of punch. A test solution (0.5 ml) was sprayed by airbrush at the pressure of 0.7 kg/cm^2 to both sides of every plate. 10 Second instar larvae were put into the petri-dishes after the leaf disc air-dried and 3 replicates were set for each treatment. Then the insects were maintained in observation room (25° C., 60˜70% R.H.). Scores were conducted and mortalities were calculated after 72 h.

carmine spider mite = assay: Acaricidal activity against carmine spider mite (airbrush spray); assay type: in vivo; conditions: 100 mg/L, adults, mortality after 72 hrs; for pest or weed control at 100 µg/mL: Tetranychus cinnabarinus
Description: as §2, §3
Method: Broadbean shoots with two true leaves in pot were taken, the healthy adults of carmine spider mite were inoculated to the leaves. The adults were counted and then sprayed with airbrush at the pressure of 0.7 kg/cm^2 and at dose of 0.5 ml. 3 replicates were set for each treatment. And then they were maintained in standard observation room. Scores were conducted and mortalities were calculated after 72 hrs.

[1] = system: Green peach aphids (Myzus Persicae Sulzer); assay: Activity against green peach aphid (airbrush foliar spray); assay type: in vivo; conditions: death rate after 48 h; for pest or weed control at 10 µg/mL / pest or weed control at 100 µg/mL / pest or weed control at 600 µg/mL: Myzus persicae, foliar, 48 h; for pest or weed control at 10 µg/mL: read-out: Insecticidal activity against peach aphid; for pest or weed control at 100 µg/mL / pest or weed control at 600 µg/mL: read-out: Insecticidal activity against peach aphid (control)
Description: as §2, §3
Method: Filter papers were put in culture dishes (Diameter=6 cm), and water was dripped on filter papers for preserving moisture. Green peach aphids (Myzus Persicae Sulzer) were maintained on cabbage. Leaves (Diameter=3 cm) of approximately 15-30 aphids were put in the culture dishes. Bioactivity tests were used the method of Airbrush Foliar Spray, pressure=10 psi (0.7 kg/cm2), spray volume=0.5 mL. The studies were conducted at three constant temperatures 25±1 C. in incubator cabinets with 60±5% RH. Survey the survival aphids after 48 h and calculate the death rates.

diamond back moth = assay: Insecticidal activity against diamond back moth (airbrush spray); assay type: in vivo; conditions: mortality after 72 h; for pest or weed control at 100 µg/mL: 100 mg/L; for pest or weed control at 100 µg/mL / pest or weed control at 600 µg/mL: read-out: control of the second instar larvae of diamond back moth
Description: as §2, §3
as §4, with “cabbage” for “corn”

cucumber gray mold = assay: Fungicidal activity in vitro (96-well, High Through Put), cucumber gray mold; assay type: cell-based; conditions: 25 mg/L, 24 hours, read-out: inhibition rate against cucumber gray mold
[2] = Triticum aestivum, 168 h, 400 mg/L, read-out: protectant activity against wheat powdery mildew
[3] = Triticum aestivum, 168 h, 25 mg/L, read-out: protectant activity against wheat powdery mildew
[4] = Triticum aestivum, 168 h, 100 mg/L, read-out: protectant activity against wheat powdery mildew

Row | SMILES | inhibition at 25 µg/mL (rice blast) | pest or weed control at 100 µg/mL (cucumber downy mildew; 100 mg/L) | pest or weed control at 400 µg/mL (cucumber downy mildew; 400 mg/L) | pest or weed control at 100 µg/mL (corn rust; 100 mg/L) | pest or weed control at 400 µg/mL (corn rust; 400 mg/L) | pest or weed control at 400 µg/mL (wheat powdery mildew; [2]) | pest or weed control at 600 µg/mL (armyworm; 600 mg/L) | pest or weed control at 100 µg/mL (carmine spider mite) | pest or weed control at 10 µg/mL ([1]; 10 mg/L) | pest or weed control at 100 µg/mL ([1]; 100 mg/L) | pest or weed control at 600 µg/mL ([1]; 600 mg/L) | pest or weed control at 25 µg/mL (wheat powdery mildew; [3]) | pest or weed control at 100 µg/mL (wheat powdery mildew; [4]) | pest or weed control at 600 µg/mL (diamond back moth; 600 mg/L) | protectant activity against cucumber downy mildew (cucumber downy mildew; 25 mg/L) | protectant activity against cucumber downy mildew (cucumber downy mildew; 50 mg/L) | protectant activity against cucumber downy mildew (cucumber downy mildew; 100 mg/L) | protectant activity against cucumber downy mildew (cucumber downy mildew; 400 mg/L) | other results
1 | CCc1ncnc(NCc2ccc3c(c2)OCO3)c1Cl [CK1] | 0% | 30% | 100% | 20% | 70% | 0% | 0% | 39% | 0% | 30% | 70% | – | – | – | – | – | – | – | pest or weed control at 25 µg/mL (cucumber downy mildew; 25 mg/L): 0%; pest or weed control at 50 µg/mL (cucumber downy mildew; 50 mg/L): 20%; pest or weed control at 25 µg/mL (corn rust; 25 mg/L): 0%
2 | Cc1ncnc(NCc2ccc3c(c2)OCO3)c1Cl [CK2] | 0% | 60% | 100% | 0% | 75% | 60% | 14% | 0% | 0% | 12% | 20% | 40% | 60% | 20% | – | – | – | – | pest or weed control at 25 µg/mL (cucumber downy mildew; 25 mg/L): 0%; pest or weed control at 50 µg/mL (cucumber downy mildew; 50 mg/L): 40%; pest or weed control at 6.25 µg/mL (wheat powdery mildew; Triticum aestivum, 168 h, 6.25 mg/L, read-out: protectant activity against wheat powdery mildew): 0%; pest or weed control at 100 µg/mL (diamond back moth): 5%; pest or weed control at 100 µg/mL (armyworm; 100 mg/L): 0%
3 | COc1ccc(CCNc2ncnc(C(F)F)c2Cl)cc1OC [CK5] | 0% | – | – | – | – | 100% | 0% | 0% | 8% | 35% | 100% | 0% | 20% | 40% | – | – | – | – | pest or weed control at 100 µg/mL (diamond back moth): 20%
4 | COc1ccc(CNc2ncnc(C(F)F)c2Cl)cc1OC [CK6] | 0% | 0% | 80% | – | – | 85% | 0% | 0% | – | – | 0% | 0% | 25% | – | – | – | – | – | pest or weed control at 100 µg/mL (diamond back moth): 0%
5 | COc1ccc(CCNc2ncnc(C(F)(F)F)c2Cl)cc1OC [CK7] | 0% | – | – | 0% | 70% | 80% | 0% | – | 0% | 37% | 66% | 0% | 30% | – | – | – | – | – | inhibition at 25 µg/mL (cucumber gray mold): 0%
6 | FC(F)c1ncnc(NCc2ccc3c(c2)OCO3)c1Cl [CK9] | 0% | 0% | 50% | 25% | 80% | 70% | 0% | 0% | – | – | – | 0% | 10% | 0% | – | – | – | – | pest or weed control at 6.25 µg/mL (corn rust): 0%; pest or weed control at 25 µg/mL (corn rust; 25 mg/L): 0%
7 | ClCc1ncnc(NCc2ccc3c(c2)OCO3)c1Cl [CK12] | – | 0% | 50% | 0% | 40% | 0% | 0% | 0% | 0% | 0% | 10% | – | – | 0% | – | – | – | – | –
8 | Clc1ncnc(NCCc2ccc3c(c2)OCO3)c1Cl [Compound 2] | – | – | – | – | – | – | – | – | – | – | – | – | – | – | 100% | 100% | 100% | 100% | inhibition rate against rice blast (rice blast; 2.8 mg/L): 80%; inhibition rate against rice blast (rice blast; 8.3 mg/L): 100%; inhibition rate against rice blast (rice blast; 25 mg/L): 100%; protectant activity against wheat powdery mildew (wheat powdery mildew; 400 mg/L): 100%
9 | FC(F)c1ncnc(NCCc2ccc3c(c2)OCO3)c1Cl [Compound 18] | – | – | – | – | – | – | – | – | – | – | – | – | – | – | 100% | 100% | 100% | 100% | inhibition rate against rice blast (rice blast; 0.9 mg/L): 80%; inhibition rate against rice blast (rice blast; 2.8 mg/L): 80%; inhibition rate against rice blast (rice blast; 8.3 mg/L): 100%; inhibition rate against rice blast (rice blast; 25 mg/L): 100%; protectant activity against cucumber downy mildew (cucumber downy mildew; 12.5 mg/L): 80%; protectant activity against corn rust (corn rust; 25 mg/L): 98%; protectant activity against corn rust (corn rust; 100 mg/L): 100%; protectant activity against corn rust (corn rust; 400 mg/L): 100%; protectant activity against wheat powdery mildew (wheat powdery mildew; 6.25 mg/L): 100%; protectant activity against wheat powdery mildew (wheat powdery mildew; 25 mg/L): 100%; protectant activity against wheat powdery mildew (wheat powdery mildew; 100 mg/L): 100%; protectant activity against wheat powdery mildew (wheat powdery mildew; 400 mg/L): 100%; control of the second instar larvae of diamond back moth (diamond back moth; 600 mg/L): 100%; control of the armyworm (armyworm; 600 mg/L): 100%; control against carmine spider mite (carmine spider mite): 90%; Insecticidal activity against peach aphid ([1]; 10 mg/L): 68%; Insecticidal activity against peach aphid (control) ([1]; 100 mg/L): 100%; Insecticidal activity against peach aphid (control) ([1]; 600 mg/L): 100%
10 | FC(F)(F)c1ncnc(NCCc2ccc3c(c2)OCO3)c1Cl [Compound 20] | – | – | – | – | – | – | – | – | – | – | – | – | – | – | 20% | 100% | 100% | 100% | –
11 | Cc1ncnc(NCCc2ccc3c(c2)OCO3)c1Cl [Compound 1451] | – | 0% | 100% | – | 80% | – | – | – | – | – | 100% | – | – | – | – | – | – | – | pest or weed control at 25 µg/mL (cucumber downy mildew; 25 mg/L): 0%; pest or weed control at 50 µg/mL (cucumber downy mildew; 50 mg/L): 0%
12 | Cc1ncnc(NCCc2ccc3c(c2)OCO3)c1Cl [Compound 1452] | – | – | – | – | – | – | – | – | – | – | – | – | – | 80% | 0% | 0% | 0% | 95% | Insecticidal activity against peach aphid (control) ([1]; 600 mg/L): 90%
13 | CCc1ncnc(NCCc2ccc3c(c2)OCO3)c1Cl [Compound 1465] | – | – | – | 95% | 100% | – | – | – | 0% | 70% | 100% | – | – | 100% | – | – | – | – | pest or weed control at 6.25 µg/mL (corn rust): 0%; pest or weed control at 25 µg/mL (corn rust; 25 mg/L): 50%
